Active and inactive are the calls of the source. The calls are words filed in the database; no cut-off is given here.
Tests used:
[1] = biological target: Mitogen-activated protein kinase 1 (Homo sapiens) (UniProt P28482); experiment: Inhibition of MAPK1 (unknown origin) at 0.1 uM relative to control; values are per cent of control
4T1 [2] = experiment: Inhibition of colony formation in mouse 4T1 cells assessed as reduction in cell number by measuring minimum inhibitory effect at 0.2 uM measured after 10 days by phase contrast microscopy analysis; type: functional, cell-based; settings: time 10.0 day
[3] = biological target: High affinity nerve growth factor receptor (Homo sapiens) (UniProt P04629); experiment: Inhibition of TrkA (unknown origin) at 0.1 uM relative to control; values are per cent of control
Sequence of High affinity nerve growth factor receptor (Homo sapiens) (P04629 33-796 limits assumed): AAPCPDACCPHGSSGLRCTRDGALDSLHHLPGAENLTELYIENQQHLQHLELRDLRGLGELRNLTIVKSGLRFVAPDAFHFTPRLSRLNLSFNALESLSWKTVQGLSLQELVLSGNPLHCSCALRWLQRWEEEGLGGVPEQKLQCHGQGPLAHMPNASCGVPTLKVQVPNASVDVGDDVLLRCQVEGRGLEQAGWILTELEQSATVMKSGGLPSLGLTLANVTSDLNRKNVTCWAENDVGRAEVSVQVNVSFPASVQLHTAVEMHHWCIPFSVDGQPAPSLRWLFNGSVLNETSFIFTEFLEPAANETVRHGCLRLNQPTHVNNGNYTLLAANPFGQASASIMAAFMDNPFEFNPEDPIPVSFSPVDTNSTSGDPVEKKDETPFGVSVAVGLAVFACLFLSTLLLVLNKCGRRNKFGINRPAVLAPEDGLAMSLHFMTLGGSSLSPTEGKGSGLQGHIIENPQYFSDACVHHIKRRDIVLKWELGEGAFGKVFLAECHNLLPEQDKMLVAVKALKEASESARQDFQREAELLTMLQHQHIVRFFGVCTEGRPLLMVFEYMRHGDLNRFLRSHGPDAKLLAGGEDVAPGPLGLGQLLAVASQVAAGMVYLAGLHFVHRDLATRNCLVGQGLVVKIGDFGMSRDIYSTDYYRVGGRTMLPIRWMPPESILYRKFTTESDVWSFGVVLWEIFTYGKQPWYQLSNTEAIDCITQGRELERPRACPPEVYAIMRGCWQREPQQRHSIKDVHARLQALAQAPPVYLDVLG

[4] = biological target: Mitogen-activated protein kinase 1 (Homo sapiens) (UniProt P28482); experiment: Inhibition of MAPK1 (unknown origin) at 1 uM relative to control; values are per cent of control
[5] = biological target: ALK tyrosine kinase receptor (Homo sapiens) (UniProt Q9UM73); experiment: Inhibition of ALK (unknown origin) at 0.1 uM relative to control; values are per cent of control
Sequence of ALK tyrosine kinase receptor (Homo sapiens) (Q9UM73 19-1620 limits assumed): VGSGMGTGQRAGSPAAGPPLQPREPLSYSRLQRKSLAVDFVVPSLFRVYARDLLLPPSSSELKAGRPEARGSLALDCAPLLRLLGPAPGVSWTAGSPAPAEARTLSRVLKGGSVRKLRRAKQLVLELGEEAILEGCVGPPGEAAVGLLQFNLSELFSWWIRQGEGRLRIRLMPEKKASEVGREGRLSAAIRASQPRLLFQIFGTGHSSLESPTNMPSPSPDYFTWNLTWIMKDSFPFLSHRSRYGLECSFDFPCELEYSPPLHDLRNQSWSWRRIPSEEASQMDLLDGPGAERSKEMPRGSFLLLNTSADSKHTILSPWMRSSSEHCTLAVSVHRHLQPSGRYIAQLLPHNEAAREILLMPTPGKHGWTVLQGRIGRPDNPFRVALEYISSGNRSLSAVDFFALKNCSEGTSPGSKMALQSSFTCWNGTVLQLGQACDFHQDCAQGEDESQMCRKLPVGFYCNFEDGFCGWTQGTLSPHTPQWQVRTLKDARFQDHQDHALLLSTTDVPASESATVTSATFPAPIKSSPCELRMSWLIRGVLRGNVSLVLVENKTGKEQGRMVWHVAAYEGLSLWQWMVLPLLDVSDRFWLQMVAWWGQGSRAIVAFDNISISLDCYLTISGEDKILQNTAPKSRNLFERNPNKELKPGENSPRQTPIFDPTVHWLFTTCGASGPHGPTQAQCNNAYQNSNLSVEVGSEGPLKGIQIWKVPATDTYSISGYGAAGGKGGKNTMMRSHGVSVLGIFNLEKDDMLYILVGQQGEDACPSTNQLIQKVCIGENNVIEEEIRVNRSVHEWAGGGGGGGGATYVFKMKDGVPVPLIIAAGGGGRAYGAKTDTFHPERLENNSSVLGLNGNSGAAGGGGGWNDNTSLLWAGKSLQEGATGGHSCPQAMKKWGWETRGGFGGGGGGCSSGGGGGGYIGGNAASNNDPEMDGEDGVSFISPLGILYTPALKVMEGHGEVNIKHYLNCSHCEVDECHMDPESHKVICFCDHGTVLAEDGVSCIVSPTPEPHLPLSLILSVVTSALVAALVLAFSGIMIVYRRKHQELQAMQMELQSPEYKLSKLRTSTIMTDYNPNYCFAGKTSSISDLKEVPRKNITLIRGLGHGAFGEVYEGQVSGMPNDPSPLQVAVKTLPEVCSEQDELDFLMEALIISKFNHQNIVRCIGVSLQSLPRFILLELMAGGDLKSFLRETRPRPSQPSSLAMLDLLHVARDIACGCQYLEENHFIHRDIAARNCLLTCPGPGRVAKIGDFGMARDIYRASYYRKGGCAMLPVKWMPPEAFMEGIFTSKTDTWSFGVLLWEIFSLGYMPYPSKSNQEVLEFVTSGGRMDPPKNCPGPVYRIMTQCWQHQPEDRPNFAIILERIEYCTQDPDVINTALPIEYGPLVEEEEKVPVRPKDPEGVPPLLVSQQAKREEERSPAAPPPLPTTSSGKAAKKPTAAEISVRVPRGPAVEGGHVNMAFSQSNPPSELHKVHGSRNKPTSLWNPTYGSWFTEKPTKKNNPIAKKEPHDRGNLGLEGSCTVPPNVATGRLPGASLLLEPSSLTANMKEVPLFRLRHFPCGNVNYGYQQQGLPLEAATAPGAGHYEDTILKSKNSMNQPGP

[6] = biological target: Casein kinase I isoform gamma-1 (Homo sapiens) (UniProt Q9HCP0); experiment: Inhibition of CK1g1 (unknown origin) at 1 uM relative to control; values are per cent of control
[7] = biological target: Serine/threonine-protein kinase Nek6 (Homo sapiens) (UniProt Q9HC98); experiment: Inhibition of NEK6 (unknown origin) at 0.1 uM relative to control; values are per cent of control
[8] = biological target: Platelet-derived growth factor receptor beta (Homo sapiens) (UniProt P09619); experiment: Inhibition of PDGFRb (unknown origin) at 0.1 uM relative to control; values are per cent of control
4T1 [9] = experiment: Effect on Src phosphorylation at Tyr416 residue in mouse 4T1 cells harbouring mCherry red fluorescent protein at 0.1 to 1 uM incubated for 1 hr by immunoblotting analysis; type: functional, cell-based; settings: dose 0.1-1 µM
4T1 [10] = experiment: Inhibition of cell migration in mouse 4T1 cells assessed as maximal efficacy at 0.4 uM incubated for 4 hrs by millicell-motility assay; type: functional
4T1 [11] = experiment: Inhibition of colony formation in mouse 4T1 cells assessed as reduction in cell number measured after 10 days by phase contrast microscopy analysis; type: functional, cell-based; settings: dose 0.4-1 µM, time 10.0 day
4T1 [12] = experiment: Induction of cell cycle arrest in mouse 4T1 adherent cells assessed as accumulation at G0/G1 phase at 1 uM measured after 72 hrs by PI staining based flow cytometry analysis (reference value: 81.3%); type: functional
4T1 [13] = experiment: Induction of apoptosis in mouse 4T1 cells assessed as increase in cell apoptosis at 0.1 to 1 uM measured after 2 days by visual analysis; type: functional; settings: dose 0.1-1 µM, time 2 day
[14] = biological target: Focal adhesion kinase 1 (Mus musculus) (UniProt P34152); experiment: Inhibition of FAK phosphorylation at Y397 residue in mouse 4T1 adherent cells cultured as 3D spheroids at 0.1 to 1 uM incubated for 24 hrs by immunoblotting analysis; type: cell-based; settings: dose 0.1-1 µM
[15] = Toxicity in C57BL6 mouse implanted with mouse ID8 cells assessed as adverse effects at 0.5 mg/ml administered as solution in 5% sucrose measured after 30 days; type: cell-based; settings: id8, 720 h, time 30 day
[16] = biological target: Tyrosine-protein kinase ABL1 (Homo sapiens) (UniProt P00519); experiment: Inhibition of Abl (unknown origin) at 1 uM relative to control; values are per cent of control
Sequence of Tyrosine-protein kinase ABL1 (Homo sapiens) (P00519 whole entry): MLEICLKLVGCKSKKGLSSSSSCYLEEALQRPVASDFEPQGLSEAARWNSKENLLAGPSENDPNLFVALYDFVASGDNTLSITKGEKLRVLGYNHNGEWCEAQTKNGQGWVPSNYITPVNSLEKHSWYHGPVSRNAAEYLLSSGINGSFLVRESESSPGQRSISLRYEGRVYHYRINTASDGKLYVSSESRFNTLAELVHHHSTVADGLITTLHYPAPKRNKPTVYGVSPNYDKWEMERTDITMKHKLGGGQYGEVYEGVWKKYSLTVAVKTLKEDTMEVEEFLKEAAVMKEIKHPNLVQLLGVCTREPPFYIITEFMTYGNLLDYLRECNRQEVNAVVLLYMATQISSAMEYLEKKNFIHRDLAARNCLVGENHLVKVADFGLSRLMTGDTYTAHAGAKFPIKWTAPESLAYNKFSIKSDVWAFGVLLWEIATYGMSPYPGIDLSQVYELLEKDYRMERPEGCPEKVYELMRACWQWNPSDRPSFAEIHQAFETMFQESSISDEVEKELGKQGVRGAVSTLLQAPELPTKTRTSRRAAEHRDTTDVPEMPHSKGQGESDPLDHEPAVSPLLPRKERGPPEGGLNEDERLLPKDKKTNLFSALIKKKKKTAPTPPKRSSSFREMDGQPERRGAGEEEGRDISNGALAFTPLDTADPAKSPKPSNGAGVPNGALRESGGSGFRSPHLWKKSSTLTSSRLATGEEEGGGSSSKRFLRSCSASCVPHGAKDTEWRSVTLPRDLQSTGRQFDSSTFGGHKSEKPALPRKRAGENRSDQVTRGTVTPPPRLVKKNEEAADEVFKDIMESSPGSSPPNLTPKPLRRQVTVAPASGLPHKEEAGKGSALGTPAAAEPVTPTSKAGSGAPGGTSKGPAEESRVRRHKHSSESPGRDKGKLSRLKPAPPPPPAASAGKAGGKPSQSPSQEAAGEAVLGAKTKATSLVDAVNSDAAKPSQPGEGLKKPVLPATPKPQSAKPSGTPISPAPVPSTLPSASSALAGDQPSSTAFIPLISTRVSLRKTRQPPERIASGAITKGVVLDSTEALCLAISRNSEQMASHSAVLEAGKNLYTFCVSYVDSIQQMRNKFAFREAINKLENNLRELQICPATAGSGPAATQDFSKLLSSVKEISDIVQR

[17] = biological target: Ephrin type-A receptor 1 (Homo sapiens) (UniProt P21709); experiment: Inhibition of EphA1 (unknown origin) at 1 uM relative to control; values are per cent of control
Sequence of Ephrin type-A receptor 1 (Homo sapiens) (P21709 whole entry): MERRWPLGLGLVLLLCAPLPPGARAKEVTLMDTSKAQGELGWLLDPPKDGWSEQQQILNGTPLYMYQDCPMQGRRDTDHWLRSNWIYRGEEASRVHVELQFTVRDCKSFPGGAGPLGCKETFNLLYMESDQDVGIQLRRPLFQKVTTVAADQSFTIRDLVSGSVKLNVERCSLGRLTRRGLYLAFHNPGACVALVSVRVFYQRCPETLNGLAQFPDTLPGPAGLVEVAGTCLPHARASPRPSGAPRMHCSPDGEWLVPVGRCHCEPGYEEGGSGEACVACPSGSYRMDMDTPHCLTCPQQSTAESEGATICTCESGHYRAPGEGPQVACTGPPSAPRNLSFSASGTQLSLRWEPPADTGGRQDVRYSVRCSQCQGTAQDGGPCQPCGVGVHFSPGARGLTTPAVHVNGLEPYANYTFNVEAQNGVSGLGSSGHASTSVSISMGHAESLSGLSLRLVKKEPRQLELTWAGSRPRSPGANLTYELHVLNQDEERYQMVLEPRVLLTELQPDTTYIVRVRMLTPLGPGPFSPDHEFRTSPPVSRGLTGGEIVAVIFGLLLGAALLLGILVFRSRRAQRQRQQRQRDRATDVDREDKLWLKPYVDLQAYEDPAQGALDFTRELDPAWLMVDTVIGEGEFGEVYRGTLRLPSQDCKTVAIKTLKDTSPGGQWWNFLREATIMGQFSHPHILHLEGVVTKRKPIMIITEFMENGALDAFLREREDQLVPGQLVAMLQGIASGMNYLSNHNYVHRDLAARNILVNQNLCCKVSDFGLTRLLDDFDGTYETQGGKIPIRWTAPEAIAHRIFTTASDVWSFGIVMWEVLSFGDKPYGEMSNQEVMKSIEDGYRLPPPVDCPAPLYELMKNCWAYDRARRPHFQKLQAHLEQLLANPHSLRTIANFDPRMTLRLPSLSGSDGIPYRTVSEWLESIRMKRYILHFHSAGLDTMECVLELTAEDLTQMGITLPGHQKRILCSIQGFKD

4T1 [18] = experiment: Inhibition of cell migration in mouse 4T1 cells at 1 uM incubated for 22 hrs by wound healing assay; type: functional, cell-based
[19] = biological target: Proto-oncogene tyrosine-protein kinase receptor Ret (Homo sapiens) (UniProt P07949); experiment: Inhibition of Ret (unknown origin) at 1 uM relative to control; values are per cent of control
[20] = biological target: Rho-associated protein kinase 1 (Homo sapiens) (UniProt Q13464); experiment: Inhibition of ROCK1 (unknown origin) at 0.1 uM relative to control; values are per cent of control
4T1 [21] = experiment: Induction of apoptosis in mouse 4T1 adherent cells upto 0.1 uM incubated for 24 hrs by annexin V staining based flow cytometry analysis; type: functional, cell-based
4T1 [22] = experiment: Upregulation of FAK level in mouse 4T1 cells harbouring mCherry red fluorescent protein at 0.1 to 1 uM incubated for 1 hr by immunoblotting analysis; type: functional, cell-based; settings: dose 0.1-1 µM
4T1 [23] = experiment: Antiproliferative activity against mouse 4T1 cells cultured as 3D spheroids assessed as maximal effect at 0.2 uM measured after 72 hrs by phase contrast microscopic analysis; type: functional, cell-based
4T1 [24] = experiment: Inhibition of cell adhesion to fibronectin in mouse 4T1 cells at 0.4 uM incubated for 4 hrs by […]; type: functional, cell-based
[25] = biological target: RAF proto-oncogene serine/threonine-protein kinase (Homo sapiens) (UniProt P04049); experiment: Inhibition of c-RAF (unknown origin) at 0.1 uM relative to control; values are per cent of control
[26] = biological target: Epidermal growth factor receptor (Homo sapiens) (UniProt P00533); experiment: Inhibition of EGFR (unknown origin) at 1 uM relative to control; values are per cent of control
Homo sapiens = species: Homo sapiens; experiment: Inhibition of p70S6K (unknown origin) at 0.1 uM relative to control; values are per cent of control
[27] = biological target: High affinity nerve growth factor receptor (Homo sapiens) (UniProt P04629); experiment: Inhibition of TrkA (unknown origin) at 1 uM relative to control; values are per cent of control
4T1 [28] = experiment: Induction of cell cycle arrest in mouse 4T1 adherent cells assessed as accumulation at G0/G1 phase at 1 uM measured after 72 hrs by PI staining based flow cytometry analysis (reference value: 76.8%); type: functional
4T1 [29] = experiment: Induction of apoptosis in mouse 4T1 cells assessed as increase in cell membrane blebbing at 0.4 to 1 uM measured after 2 days by phase contrast microscopy analysis; type: functional, cell-based; settings: dose 0.4-1 µM, time 2.0 day
[30] = biological target: Serine/threonine-protein kinase Chk1 (Homo sapiens) (UniProt O14757); experiment: Inhibition of CHK1 (unknown origin) at 1 uM relative to control; values are per cent of control
[31] = biological target: Insulin-like growth factor 1 receptor (Homo sapiens) (UniProt P08069); experiment: Inhibition of IGF-1R (unknown origin) at 0.1 uM relative to control; values are per cent of control
[32] = biological target: Aurora kinase A (Homo sapiens) (UniProt O14965); experiment: Inhibition of Aurora-A (unknown origin) at 1 uM relative to control

Sequence of Mitogen-activated protein kinase 1 (Homo sapiens) (P28482 whole entry): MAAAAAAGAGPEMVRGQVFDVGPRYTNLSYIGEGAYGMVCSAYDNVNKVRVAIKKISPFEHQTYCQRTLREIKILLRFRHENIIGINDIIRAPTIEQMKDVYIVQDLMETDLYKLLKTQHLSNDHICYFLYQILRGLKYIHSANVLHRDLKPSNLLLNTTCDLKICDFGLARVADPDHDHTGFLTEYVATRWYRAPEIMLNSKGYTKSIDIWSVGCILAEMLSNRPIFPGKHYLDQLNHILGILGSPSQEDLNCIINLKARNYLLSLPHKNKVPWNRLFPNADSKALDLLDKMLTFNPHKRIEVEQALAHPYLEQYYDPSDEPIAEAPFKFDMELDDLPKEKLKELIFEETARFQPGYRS

Q: Which residual activity [1] does the source give for `CNC(=O)c1ccccc1Nc1cc(Nc2ccc(N3CCOCC3)cc2OC)ncc1C(F)(F)F` [VS-4718] here?
A: 78%

Q: And the inhibition (4T1 [2])?
A: Active

Q: And the residual activity [3]?
A: 80%

Q: And the residual activity [4]?
A: 58%

Q: What about the residual activity [5] of the same compound?
A: 145%

Q: And the residual activity [6]?
A: 107%

Q: And the residual activity [7]?
A: 110%

Q: What about the residual activity [8] of the same compound?
A: 98%

Q: What about the Activity (4T1 [9]) of the same compound?
A: inactive

Q: And the Imax (4T1 [10])?
A: ~60%

Q: And the inhibition (4T1 [11])?
A: Dose-Dependent Effect

Q: And the Activity (4T1 [12])?
A: 84.4%

Q: What about the Activity (4T1 [13]) of the same compound?
A: >50%

Q: What about the inhibition [14] of the same compound?
A: Active

Q: And the Activity [15]?
A: Non-Toxic

Q: What about the residual activity [16] of the same compound?
A: 112%

Q: What about the residual activity [17] of the same compound?
A: 108%

Q: And the inhibition (4T1 [18])?
A: Active

Q: What about the residual activity [19] of the same compound?
A: 67%

Q: And the residual activity [20]?
A: 96%

Q: And the Activity (4T1 [21])?
A: inactive

Q: What about the Activity (4T1 [22]) of the same compound?
A: Active

Q: What about the Activity (4T1 [23]) of the same compound?
A: Active

Q: What about the inhibition (4T1 [24]) of the same compound?
A: inactive

Q: And the residual activity [25]?
A: 142%

Q: What about the residual activity [26] of the same compound?
A: 106%

Q: What about the residual activity (Homo sapiens) of the same compound?
A: 95%

Q: And the residual activity [27]?
A: 27%

Q: What about the Activity (4T1 [28]) of the same compound?
A: 65.7%

Q: And the Activity (4T1 [29])?
A: Active

Q: What about the residual activity [30] of the same compound?
A: 105%

Q: And the residual activity [31]?
A: 123%

Q: And the inhibition [32]?
A: 8%

From ChEMBL document CHEMBL5715945 (Cancer Biol Ther, 2010)
